Read-outs that look alike come from different tables or passages of the source.
Columns and labels:
[1] = Maximum tolerated dose study; format: in vivo; settings: C57/B16, mouse, in vivo; 3 days on/3 days off schedule; read-out: MTD
Method: Several maximum tolerated dose studies and toxicology studies were performed and the results indicated PFK-158 is safer than PFK-015. Studies were performed in C57/B16 mice and SD rats.

[2] = target: T1, PFKFB3 (Homo sapiens, UniProt Q16875); assay: Enzymatic activity of PFKFB3 in cells (F2,6BP levels, Van Schaftingen method); format: cell-based; parameters: endogenous in cells; host or cells: Jurkat cells; settings: read-out: IC50, Enzymatic activity of PFKFB3 in cells
T1 sequence (Q16875 whole entry): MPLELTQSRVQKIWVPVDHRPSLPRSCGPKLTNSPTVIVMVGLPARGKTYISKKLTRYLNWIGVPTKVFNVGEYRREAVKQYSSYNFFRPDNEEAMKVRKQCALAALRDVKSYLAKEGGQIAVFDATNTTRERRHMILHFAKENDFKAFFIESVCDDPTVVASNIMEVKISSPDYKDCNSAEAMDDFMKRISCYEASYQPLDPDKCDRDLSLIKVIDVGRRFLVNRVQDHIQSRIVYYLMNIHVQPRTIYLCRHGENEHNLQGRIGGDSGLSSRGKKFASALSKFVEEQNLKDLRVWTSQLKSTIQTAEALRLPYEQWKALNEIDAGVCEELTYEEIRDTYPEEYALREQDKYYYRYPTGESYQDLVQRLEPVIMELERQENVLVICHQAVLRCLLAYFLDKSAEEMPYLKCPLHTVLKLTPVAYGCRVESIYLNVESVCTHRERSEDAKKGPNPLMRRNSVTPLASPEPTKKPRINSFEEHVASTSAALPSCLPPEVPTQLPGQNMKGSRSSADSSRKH
Method: Inhibition of PFKFB3 can also be measured in cells by measuring fructose-2,6-biphosphate levels according to the Van Schaftingen method (Eur. J. of Biochem, 129: 191 (1982)). This method enables measurement of the inhibition in a cellular environment, a model more relevant than the pure recombinant protein. Briefly, Jurkat cells were plated at 1×10^5 cells/mL and incubated with different concentrations of PFK-158 for 3 hours. Samples were collected and cells were lysed. Extracts were characterized as described in previous reports and normalized to protein concentration.

[3] = test system: Jurkat cell line (leukemia cell line); assay: Toxicity / cell growth of Jurkat cell line; format: cell-based; settings: Homo sapiens, Jurkat, read-out: IC50, toxicity of Jurkat cell line (leukemia cell line)
Method: The ability of PFK-158 to kill or inhibit the proliferation of cancer cells was measured using either the MTT assay, the alamarBlue® assay (Invitrogen, Grand Island, N.Y.), or the CellTiter Glo™ assay (Promega, Madison, Wis.) using 48 or 72 hours exposure.
Cells of the desired tumor cell line were plated at 2×10^5 cells/ml in 96 well plates. Twice the indicated concentrations of the compounds of the invention were added to cells the following day in an equal volume of media. 72 hours later, cells were lysed and subjected to ATP determination using the CellTiter-Glo™ Luminescent Cell Viability Assay kit. Experiments were performed in triplicate. When using the MTT assay or the alamarBlue® assay, the experimental conditions are essentially similar; at the end of the incubation period, 20 microliters of the MTT solution is added per well and the samples are incubated for an additional four hours, rinsed, and absorbance at 570 nm was measured. Results for the inhibition of cell proliferation are reported as the IC50 (the concentration resulting in 50% inhibition of proliferation of the cell population) and are listed in Table 5 below. Cell lines include lung, colon, prostate, breast, ovarian, and pancreatic cancer lines.

[4] = In vitro stability in human liver microsomes; format: in vitro ADME
[5] = Repeat-dose toxicology study in SD rats; format: in vivo
Method: Toxicology studies were performed in SD rats comparing PFK-158 and PFK-015 using a repeat dosing schedule. The studies were performed at dose levels ranging from 5 to 30 mg/kg and animals were monitored for weight loss, behavior, clinical signs, and clinical chemistries. At the end of the study, gross pathology and histopathology were performed.

[6] = test system: Jurkat cells; assay: Inhibition of 14C-2-deoxyglucose uptake; format: cell-based; settings: Homo sapiens, read-out: IC50, Inhibition of 2 deoxyglucose uptake
Method: Inhibition of PFKFB3 results in inhibiting glycolysis. Several feedback or feedforward activation and inhibition mechanisms exist so that, by a feedback mechanism, inhibiting the activity of PFKFB3 might inhibit glucose uptake by cells. An assay was developed to determine if there was inhibition of glucose uptake following exposure PFK-158. Briefly, Jurkat cells were plated at 10^5 cells/mL in RPMI 1640 supplemented with 10% fetal bovine serum and 50 μg/mL gentamicin sulfate. Cells were immediately treated with vehicle or 0.5 μmol/L of PFK-158 for 3 hours and subsequently placed in glucose-free RPMI 1640 for 30 min. ^14C-2-deoxyglucose (0.25 μCi/mL; Perkin Elmer) was added for an additional 60 min and cells were then washed three times with ice-cold RPMI 1640 containing no glucose. Cell lysates were collected in 500 μL of 0.1% SDS and scintillation counts (counts/min) were measured on 400 μL of lysate. Counts were normalized to protein concentration.

[7] = test system: lung cancer model, pancreatic cancer model, colon cancer model; assay: Tumor growth inhibition in mouse cancer models; settings: mouse cancer models, during treatment
Method: Studies determining efficacy of PFK-158 at inhibiting tumor growth in mouse cancer models were performed. These studies were carried out with PFK-158 alone and in combination with compounds currently used in the treatment of cancer patients. Studies were performed in a lung cancer model, a pancreatic cancer model, and in a colon cancer model.
Efficacy of PFK-158 was studied in vivo in tumor models. Several tumor models were used in these studies (the Lewis lung carcinoma, or LLC model, the CT-26 colon carcinoma tumor model, or the BXPC3 pancreatic cancer model). The experimental protocol for the LLC study is described below. Subsequent to subcutaneous inoculation of tumor cells, tumors started to develop and once tumors reached the desired volume of 100-125 mm^3 on average, treatment was initiated. Tumor volume was monitored in both groups and the average for both the control and treatment groups was measured three times a week, as well as body weights.
Briefly, normal female C57BL/6 mice at 7-8 weeks of age were used for the study. Mice were housed in microisolator housing, with food and water provided as libitum, and quarantined for 4 days prior to the initiation of the study. LLC cells were maintained in a monolayer culture in DMEM medium supplemented with 10% heat inactivated fetal calf serum, 100 U/ml penicillin and 100 μg/ml streptomycin, and L-glutamine (2 mM) at 37° C. in an atmosphere of 5% CO2 in air. The tumor cells were routinely sub-cultured twice a week. The cells growing in an exponential phase were harvested and counted for tumor inoculation. Each mouse was inoculated subcutaneously at the right flank with the LLC tumor cells (3×10^5) in 0.1 ml of PBS for tumor development. When athymic nude mice were used, as for the BxPC3 model, then the strain of mice is slightly different. Furthermore, the use of Matrigel supports tumor development, meaning that cells are suspended in 100 μl of a mixture of medium/Matrigel (1:1) and are then subcutaneously implanted in the right flank region. Animals were monitored for tumor growth daily after cell implantation. When tumor volumes reached approximately 100-125 mm^3, mice were randomized into groups of 8 mice each using only mice having tumor volumes closest to the mean value. Tumor volumes were measured using the formula V=L×W×H×π/6, where L and W represent the longer and shorter diameters of the tumor and H represents the height of the tumor. Treatment began following randomization. PFK-158 was administered IP at a dose of 60 mg/kg on days 1, 3, 5, 7, 9, 11, and 13.
Similar protocols were used for the other studies using different models; differences included the use of Balbc/nude mice; administering larger number of cancer cells; and use of Matrigel.

[8] = target: T1, PFKFB3; assay: Enzymatic activity of recombinant PFKFB3, ADP-Glo assay; format: biochemical
Method: The inducible bifunctional 6-Phosphofructo-2-kinase/fructose2,6-biphosphatase enzyme (PFKFB3) was expressed and purified in order to determine if PFK-158 inhibits enzymatic activity. PFKFB3 was prepared by expression in E. coli and purified by GST column and column chromatography. […] The recombinant protein was pure and active as determined by the results of a commercially available kinase activity assay (ADP-Glo™, Promega, Madison, Wis.).

[9] = IV pharmacokinetics in mice; format: in vivo, Balbc mice; settings: mouse, plasma, 5 mg/kg, IV dosing; for AUC(0-inf): read-out: AUC0-inf; for Cmax: read-out: Cmax
Method: The pharmacokinetic (PK) parameters for PFK-158 were determined in mice following IV (intravenous) administration in mice and rats. A typical study design includes six animals (male or female) 7 to 8 weeks old.
Mouse pharmacokinetic properties using a dose of 5 mg/kg were determined after IV administration using a 10% DMSO, 10% PEG-200, 10% Solutol:ethanol (1:1) and 70% D5W solution or any other pharmaceutically acceptable parenteral formulation. Blood samples were collected at different intervals. Plasma samples were extracted and analyzed using an LC-MS/MS method. Similar protocols were used for the rat PK study (Sprague Dawley rats; 30 mg/kg), although the formulation for rat PK studies differed (30% Captisol, pH 3.0 solution). Time vs. plasma concentration plots were prepared as shown in FIGS. 4 (BalbC mice) and 5 (SD rats), respectively. Pharmacokinetic parameters were calculated and are provided below in Table 7.

[10] = IV pharmacokinetics in rats, 40 mg/kg; format: in vivo; settings: IV 40 mg/kg; for Plasma AUC0→t: Captisol solution
Method: (§1) In another embodiment, a cyclodextrin based solution was used to investigate the PK profile of PFK-158, 2HCl at a higher concentration in both rats and dogs.
(§2) The solution was prepared with 40% w/v Captisol® in water for injection, 5% Mannitol, and a pH 2.3 citrate buffer leading to a 8 mg/ml concentration of PFK-158, 2HCl. This solution was safely administered IV to rats and dogs at a dose of 40 mg/kg. Blood samples were taken over a 24 hour period and analyzed. […] Pharmacokinetic parameters were calculated in the same way in dogs: plasma AUC0→24 values of 16,100±700 and 15,900±2600 hr·ng/mL, and plasma C5 min values of 6960±1180 and 6900±900 ng/mL were obtained for male and female dogs, respectively.

[11] = IV pharmacokinetics in dogs, 40 mg/kg; format: in vivo; settings: IV 40 mg/kg
Method: as §1, §2

[12] = Table 8, read-out: IC50, Enzymatic activity of PFKFB3, ADP-Glo Assay

| Structure (SMILES) | IC50 ([2]; Table 8) [nM] | IC50 ([3]; Table 8) [nM] | IC50 ([6]; Jurkat, Table 8) [nM] | IC50 [8, 12] [nM] | clearance ([9]; Table 9, BalbC mice) [mL/min/kg] | half-life ([9]; Table 9, BalbC mice) [h] | AUC(0-inf) ([9]; Table 9, BalbC mice) [ng·h/mL] | Cmax ([9]; Table 9, BalbC mice) [ng/mL] | further results |
| --- | --- | --- | --- | --- | --- | --- | --- | --- | --- |
| O=C(/C=C/c1ccc2ccccc2n1)c1ccncc1 [PFK-015] |  |  |  |  |  |  |  |  | MTD [1]: 30 mg/kg; IC50 ([2]; Table 1, F2,6BP levels, Jurkat cells): 4700 ± 1600 nM; IC50 ([3]; Table 1): 800 ± 100 nM; Percent metabolized after 1 hr [4]: 67%; MTD ([5]; rat, in vivo, repeat dosing schedule): 12 mg/kg; Adverse observations in toxicology study ([5]; repeat dosing, PFK-158 5 to 30 mg/kg, PFK-015 12 and 25 mg/kg): adverse observations at both dose levels; IC50 ([6]; Table 1, Jurkat cells): 1200 ± 100 nM; body weight loss [7]: higher than 15%; IC50 ([8]; Table 1, read-out: IC50, Enzymatic activity of PFKFB3, ADP Glo Assay): 318 ± 19 nM; clearance ([9]; Table 2, Balbc mice): 46 mL/min/kg; half-life ([9]; Table 2, Balbc mice): 5 h; AUC(0-inf) ([9]; Table 2, Balbc mice): 1800 ng·h/mL; Cmax ([9]; Table 2, Balbc mice): 3050 ng/mL |
| COc1ccc2nc(/C=C/C(=O)c3ccncc3)ccc2c1 [PFK-138, 3-(6-methoxy-quinolin-2-yl)-1-pyridin-4yl-propenone] | 7400 ± 1800 | 1200 ± 200 | 2200 ± 300 | 431 ± 34 | 154 | 0.7 | 541 | 991 |  |
| COc1ccc2nc(/C=C/C(=O)c3ccnc(OC)c3)ccc2c1 [PFK-144, 1-(2-methoxy-pyridin-4-yl)-3-(6-methoxy-quinolin-2-yl)-propenone] | 10700 ± 300 | 1700 ± 300 | 3100 ± 500 | 654 ± 94 | 120 | 2.8 | 696 | 1500 |  |
| O=C(/C=C/c1ccc2cc(OCCN3CCCCC3)ccc2n1)c1ccncc1 [PFK-150, 3-(6-(2-piperidin-1-yl-ethoxy)-quinolin-2-yl)-1-pyridin-4-yl-propenone] | 15600 ± 1400 | 2500 ± 400 | 3800 ± 800 | 802 ± 177 | 1330 | 2.5 | 63 | 40 |  |
| O=C(/C=C/c1ccc2cccc(C(F)(F)F)c2n1)c1ccncc1 [PFK-153, 1-Pyridin-4-yl-3-(8-trifluoromethyl-quinolin-2-yl)-propenone] | 6000 ± 600 | 900 ± 100 | 1200 ± 600 | 173 ± 23 | 327 | 3.8 | 225 | 397 |  |
| Cc1ccc2ccc(/C=C/C(=O)c3ccncc3)nc2c1 [PFK-154, 3-(7-Methyl-quinolin-2-yl)-1-pyridin-4-yl-propenone] | 11300 ± 600 | 1300 ± 100 | 2200 ± 600 |  | 75 | 6.1 | 1100 | 672 |  |
| Cl.Cl.O=C(/C=C/c1ccc2ccc(C(F)(F)F)cc2n1)c1ccncc1 [PFK-158, 2HCl] |  |  |  |  |  |  |  |  | plasma Cmax ([10]; female rats): 39,500±10,000 ng/mL; Plasma AUC0→t ([10]; female rats): 27,700±5800 hr·ng/mL; plasma Cmax ([10]; male rats): 51,400±6300 ng/mL; Plasma AUC0→t ([10]; male rats): 37,600±2800 hr·ng/mL; plasma AUC0→24 ([11]; female dogs): 15,900±2600 hr·ng/mL; plasma C5 min ([11]; female dogs): 6900 ± 900 ng/mL; plasma AUC0→24 ([11]; male dogs): 16,100±700 hr·ng/mL; plasma C5 min ([11]; male dogs): 6960 ± 1180 ng/mL |

Source: US9649305B2, “PFKFB3 inhibitor and methods of use as an anti-cancer therapeutic” (ADVANCED CANCER THERAPEUTICS, LLC, priority 2012, dated 2017)
